What all share (assay type): biochemical
The target in one test is T1, GST-JAK1(866-1154) (Homo sapiens, UniProt P23458).
T1 construct: GST-JAK1(866-1154); made in house
Description: EPK JAK-family kinases profiling assay (Caliper mobility shift), JAK1. Conditions: ATP 40 μM, 50 nM kinase. The source says: (§1) All four kinases of the JAK-family kinases were used as purified recombinant GST-fusion proteins, containing the active kinase domains. GST-JAK1(866-1154), GST-JAK3(811-1124), and GST-TYK2(888-1187) were expressed and purified by affinity chromatography at the EPK biology unit. GST-JAK2(808-1132) was purchased from Invitrogen (Carlsbad, USA, #4288).
(§2) The kinase assays were based on the Caliper mobility shift assay using the LabChip 3000 systems. This technology is similar to capillary electrophoresis and uses charge driven separation of substrate and product in a microfluidic chip.
(§3) All kinase reactions were performed in 384 well microtiter plates in a total reaction volume of 18 μl. The assay plates were prepared with 0.1 μl per well of test compound in the appropriate test concentration, as described under the section “preparation of compound dilutions”. The reactions were started by combining 9 μl of substrate mix (consisting of peptide and ATP) with 9 μl of kinase dilution. The reactions were incubated for 60 minutes at 30° C. and stopped by adding 70 μl of stop buffer (100 mM Hepes, 5% DMSO, 0.1% Coating reagent, 10 mM EDTA, 0.015% Brij 35).
(§4) Fluorescently labeled synthetic peptides were used as substrates in all reactions. […] Specific assay conditions are described in Table 1:
(§5) The terminated reactions were transferred to the Caliper LabChip 3000 reader and the turnover of each reaction was measured by determining the substrate/product ratio.
(§6) Test compounds were dissolved in DMSO (10 mM) and transferred into 1.4 mL flat bottom or V-shaped Matrix tubes carrying a unique 2D matrix chip by individual compound hubs. The numbers of these chips were distinctively linked to the individual compound identification numbers. The stock solutions were stored at −20° C. if not used immediately. For the test procedure the vials were defrosted and identified by a scanner whereby a working sheet was generated that guided the subsequent working steps.
(§7) Compound dilutions were made in 96 well plates. This format enabled the assay of maximally 40 individual test compounds at 8 concentrations (single points) including 4 reference compounds. The dilution protocol included the production of pre-dilution plates, master plates and assay plates:
(§8) Pre-dilution plates: 96 polypropylene well plates were used as pre-dilution plates. A total of 4 pre-dilution plates were prepared including 10 test compounds each on the plate positions A1-A10, one standard compound at A11 and one DMSO control at A12. All dilution steps were done on a HamiltonSTAR robot.
(§9) Master plates: 100 μL of individual compound dilutions including standard compound and controls of the 4 “pre-dilution plates” were transferred into a 384 “master plate” including the following concentrations 1′820, 564, 182, 54.6, 18.2, 5.46, 1.82 and 0.546 μM, respectively in 90% of DMSO.
(§10) Assay plates: Identical assay plates were then prepared by pipetting 100 nL each of compound dilutions of the master plates into 384-well “assay plates”. […] The preparation of the master plates were handled by the Matrix PlateMate Plus robot and replication of assay plates by the HummingBird robot.

A further test deals with T2, GST-JAK2(808-1132) (Homo sapiens, UniProt O60674).
T2 construct: GST-JAK2(808-1132); purchased Invitrogen (Carlsbad, USA) #4288
T2 sequence (O60674 808-1132): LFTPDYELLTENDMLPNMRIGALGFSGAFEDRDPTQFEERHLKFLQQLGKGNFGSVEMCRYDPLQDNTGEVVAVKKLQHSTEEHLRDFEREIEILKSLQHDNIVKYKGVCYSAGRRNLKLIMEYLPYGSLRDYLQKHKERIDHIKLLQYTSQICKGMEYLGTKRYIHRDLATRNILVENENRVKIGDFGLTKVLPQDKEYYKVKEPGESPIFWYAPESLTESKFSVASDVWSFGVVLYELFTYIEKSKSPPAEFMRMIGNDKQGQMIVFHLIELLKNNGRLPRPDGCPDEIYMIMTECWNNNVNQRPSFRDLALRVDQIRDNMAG
The experiment in a line: EPK JAK-family kinases profiling assay (Caliper mobility shift), JAK2. Conditions: ATP 20 μM, 1.8 nM kinase.
Description: as §1, §2, §3, §4, §5, §6, §7, §8, §9, §10

Another test addresses T3, GST-JAK3(811-1124) (Homo sapiens, UniProt P52333).
T3 construct: GST-JAK3(811-1124); made in house
The experiment in a line: EPK JAK-family kinases profiling assay (Caliper mobility shift), JAK3. Conditions: ATP 80 μM, 6 nM kinase.
Description: as §1, §2, §3, §4, §5, §6, §7, §8, §9, §10

SMILES strings stand for the structures.

T1 sequence (P23458 866-1154): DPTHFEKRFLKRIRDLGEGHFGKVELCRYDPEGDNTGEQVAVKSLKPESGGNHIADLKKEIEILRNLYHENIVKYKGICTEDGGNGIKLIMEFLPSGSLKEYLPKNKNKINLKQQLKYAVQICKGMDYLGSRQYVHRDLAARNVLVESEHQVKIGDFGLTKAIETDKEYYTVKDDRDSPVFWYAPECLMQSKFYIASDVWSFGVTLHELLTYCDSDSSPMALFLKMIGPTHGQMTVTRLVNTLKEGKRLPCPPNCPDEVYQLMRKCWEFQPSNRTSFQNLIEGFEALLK
T3 sequence (P52333 811-1124): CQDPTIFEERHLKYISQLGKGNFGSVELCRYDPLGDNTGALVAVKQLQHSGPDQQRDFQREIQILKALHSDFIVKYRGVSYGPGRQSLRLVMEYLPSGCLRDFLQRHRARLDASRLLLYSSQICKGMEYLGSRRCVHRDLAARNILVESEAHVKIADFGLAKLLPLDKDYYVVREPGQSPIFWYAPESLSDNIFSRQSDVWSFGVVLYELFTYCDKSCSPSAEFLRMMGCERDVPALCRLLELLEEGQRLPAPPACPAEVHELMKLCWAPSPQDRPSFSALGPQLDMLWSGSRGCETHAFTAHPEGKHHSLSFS

As to `COc1cc(-c2cnc3cccc(-c4ccc(CN5CCOCC5)c(F)c4)c3n2)cc(OC)c1OC` [Example 20, 8-(3-Fluoro-4-morpholin-4-ylmethyl-phenyl)-2-(3,4,5-trimethoxy-phenyl)-quinoxaline], the values for the IC50 at GST-JAK1(866-1154) and at GST-JAK2(808-1132) were 160 nM and 24 nM, respectively.

Turning to `COc1cc(-c2cnc3cccc(-c4ccc(CN5CCOCC5)cc4)c3n2)cc(OC)c1OC` [Example 15, 8-(4-Morpholin-4-ylmethyl-phenyl)-2-(3,4,5-trimethoxy-phenyl)-quinoxaline], the IC50 at GST-JAK3(811-1124) was more than 10000 nM. As to `COc1cc(-c2cnc3cc(C)cc(-c4ccc(C(=O)N5CCOCC5)cc4)c3n2)cc(OC)c1OC` [Example 79, {4-[7-Methyl-3-(3,4,5-trimethoxy-phenyl)-quinoxalin-5-yl]-phenyl}-morpholin-4-yl-methanone], the concentration for half-maximal inhibition (IC50) is more than 10000 nM at GST-JAK3(811-1124) and 520 nM at GST-JAK2(808-1132). For the compound `COc1cc(-c2cnc3cccc(-c4ccc(S(C)(=O)=O)cc4)c3n2)cc(OC)c1OC` [Example 2, 8-(4-Methanesulfonyl-phenyl)-2-(3,4,5-trimethoxy-phenyl)-quinoxaline], the figures for the 50% inhibitory concentration (IC50) at GST-JAK3(811-1124) and at GST-JAK2(808-1132) were 5400 nM and 120 nM, respectively.

With `COc1cc(-c2cnc3cccc(-c4ccc(CN5CCS(=O)(=O)CC5)cc4)c3n2)cc(OC)c1OC` [Example 19, 8-[4-(1,1-Dioxido-thiomorpholin-4-ylmethyl)-phenyl]-2-(3,4,5-trimethoxy-phenyl)-quinoxaline], the concentration for half-maximal inhibition (IC50) at GST-JAK1(866-1154) was 59 nM. Regarding `CS(=O)(=O)Nc1cccc(-c2cnc3cccc(-c4ccc(CC(=O)N5CCOCC5)cc4)c3n2)c1` [Example 38, N-(3-{8-[4-(2-Morpholin-4-yl-2-oxo-ethyl)-phenyl]-quinoxalin-2-yl}-phenyl)-methanesulfonamide], the concentration for half-maximal inhibition (IC50) turned out to be 4200 nM on GST-JAK3(811-1124) and 23 nM at GST-JAK2(808-1132). On the same counts, the results for `COc1cc(-c2cnc3cccc(-c4ccc(S(=O)(=O)N(C)C)cc4)c3n2)cc(OC)c1OC` [Example 8, N,N-Dimethyl-4-[3-(3,4,5-trimethoxy-phenyl)-quinoxalin-5-yl]-benzenesulfonamide] are more than 10000 nM and 110 nM. On the same counts, the results for `COc1cc(-c2cnc3cccc(-c4ccc(S(=O)(=O)C(C)C)cc4)c3n2)cc(OC)c1OC` [Example 4, 8-[4-(Propane-2-sulfonyl)-phenyl]-2-(3,4,5-trimethoxy-phenyl)-quinoxaline] are more than 10000 nM and 220 nM.

Turning to `COc1ccc(-c2cnc3cccc(-c4ccc(S(C)(=O)=O)cc4)c3n2)cc1OC` [Example 23, 2-(3,4-Dimethoxy-phenyl)-8-(4-methanesulfonyl-phenyl)-quinoxaline], the results for the IC50 on GST-JAK3(811-1124) and at GST-JAK2(808-1132) were more than 10000 nM and 200 nM, respectively. On the same counts, the results for `CCNS(=O)(=O)c1ccc(-c2cccc3ncc(-c4cc(OC)c(OC)c(OC)c4)nc23)cc1` [Example 7, N-Ethyl-4-[3-(3,4,5-trimethoxy-phenyl)-quinoxalin-5-yl]-benzenesulfonamide] are 8420 nM and 95 nM. Take `COc1cc(-c2cnc3cccc(-c4ccc(S(N)(=O)=O)cc4)c3n2)cc(OC)c1OC` [Example 5, 4-[3-(3,4,5-Trimethoxy-phenyl)-quinoxalin-5-yl]-benzenesulfonamide]: the concentration for half-maximal inhibition (IC50) at GST-JAK3(811-1124) is more than 10000 nM; on GST-JAK2(808-1132), 110 nM. Regarding `COc1cc(-c2cnc3cccc(-c4ccc(C(=O)N5CCOCC5)c(C)c4)c3n2)cc(OC)c1OC` [Example 16, {2-Methyl-4-[3-(3,4,5-trimethoxy-phenyl)-quinoxalin-5-yl]-phenyl}-morpholin-4-yl-methanone], the IC50 at GST-JAK2(808-1132) worked out at 19 nM. `CNC(=O)c1ccc(-c2cccc3ncc(-c4cc(OC)c(OC)c(OC)c4)nc23)cc1` [Example 9, N-Methyl-4-[3-(3,4,5-trimethoxy-phenyl)-quinoxalin-5-yl]-benzamide]: the IC50 at GST-JAK3(811-1124) is more than 10000 nM; at GST-JAK2(808-1132), 170 nM.

As to `CCS(=O)(=O)c1ccc(-c2cccc3ncc(-c4ccc(O)c(OC)c4)nc23)cc1` [Example 77, 4-[8-(4-Ethanesulfonyl-phenyl)-quinoxalin-2-yl]-2-methoxy-phenol], the half-inhibitory concentration (IC50) came out at 9800 nM at GST-JAK3(811-1124) and 130 nM on GST-JAK2(808-1132). On the same counts, the results for `CCS(=O)(=O)c1ccc(-c2cccc3ncc(-c4ccc(OCCOC)c(OC)c4)nc23)cc1` [Example 47] are more than 10000 nM and 38 nM. As for `COc1cc(-c2cnc3cccc(-c4ccc(NS(C)(=O)=O)cc4)c3n2)cc(OC)c1OC` [Example 12, N-{4-[3-(3,4,5-Trimethoxy-phenyl)-quinoxalin-5-yl]-phenyl}-methanesulfonamide], the IC50 at GST-JAK1(866-1154) is 180 nM; at GST-JAK3(811-1124), more than 10000 nM; on GST-JAK2(808-1132), 52.5 nM. Regarding `COc1cc(-c2cnc3cccc(-c4ccc(CC(=O)N5CCOCC5)cc4)c3n2)cc(OC)c1OC` [Example 11, 1-Morpholin-4-yl-2-{4-[3-(3,4,5-trimethoxy-phenyl)-quinoxalin-5-yl]-phenyl}-ethanone], the IC50 at GST-JAK1(866-1154) is 39 nM; on GST-JAK2(808-1132), 9 nM. For the compound `COc1cc(-c2cnc3cccc(-c4ccc(C(=O)N5CCOCC5)cc4F)c3n2)cc(OC)c1OC` [Example 1, {3-Fluoro-4-[3-(3,4,5-trimethoxy-phenyl)-quinoxalin-5-yl]-phenyl}-morpholin-4-yl-methanone], the concentration for half-maximal inhibition (IC50) on GST-JAK3(811-1124) stood at 4400 nM; on GST-JAK2(808-1132), 82 nM. On the same counts, the results for `CCS(=O)(=O)c1ccc(-c2cccc3ncc(-c4cccc(NS(C)(=O)=O)c4)nc23)cc1` [Example 39, N-{3-[8-(4-Ethanesulfonyl-phenyl)-quinoxalin-2-yl]-phenyl}-methanesulfonamide] are more than 10000 nM and 190 nM. As for `COc1cc(-c2cnc3cccc(-c4ccc(CN5CCOCC5)c(C)c4)c3n2)cc(OC)c1OC` [Example 21, 8-(3-Methyl-4-morpholin-4-ylmethyl-phenyl)-2-(3,4,5-trimethoxy-phenyl)-quinoxaline], at GST-JAK1(866-1154), the half-maximal inhibitory concentration (IC50) turned out to be 1800 nM.
